Measured values taken from patent US12643855B2, “Fluorogenic dimer compound, useful as a probe for detection of endogenous receptors” (UNIVERSITE DE STRASBOURG, priority 2020, dated 2026).

How the values were obtained:
Format in all cases: physicochemical
[1] = Absorption and fluorescence spectroscopy of mCy5.5-PEG and dCy5.5-PEG in solvents of different polarities (Example 1); settings: for λem, position of the emission maximum: excitation 630 nm, 20° C.; for Difference in QY between organic solvents and water (turn-on response): QY in organic solvents vs water; for Fluorescence maxima: in organic solvents
Description: All fluorescence spectra were corrected for instrumental effects. […] To confirm the formation of the intramolecular dimer, the absorption spectra of two dyes were compared. […] This new band can be assigned to the non-fluorescent intramolecular dimer of the H-aggregate type, which is highly favored in aqueous medium. […] As a consequence, dCy5.5-PEG presented excellent fluorogenic properties, with up to 140-fold higher QY in organic solvents than in water. […] As the absorption spectrum of dCy5.5-PEG in the open form (in MeOH) is the same as that of the cyanine 2, the extinction coefficient of the dimer should be ca double of the monomer. The extinction coefficient for the cyanine 2, was measured to be 222 000 M^−1 cm^−1 in MeOH, which allows estimation of the extinction coefficient for the dimer dCy5.5-PEG: 222 000 M^−1 cm^−1×2=444 000 M^−1 cm^−1. Then, given its strong QY (56% in DMF), dCy5.5-PEG appears to be one of the brightest fluorogenic NIR dyes reported to date.

[2] = Absorption and fluorescence spectroscopy, DY647 dimers (Examples 2 and 3); settings: for λem, position of the emission maximum: excitation 600 nm; for Fluorescence turn-on: ratio of quantum yields in EtOH to that in water (200 nM), DY647 dimers
Method: Absorption spectra were recorded on a Shimadzu UV-2700i spectrophotometer and fluorescence spectra on a Horiba Fluoromax 4 spectrofluorometer. Fluorescence emission spectra were systematically recorded at 600 nm excitation wavelength at 20° C. All fluorescence spectra were corrected for instrumental effects. Fluorescence quantum yields (QY) were measured using DID in MeOH as a reference (QY=33%).^[ref] Turn-ON were calculated as a ratio of QY of compounds in EtOH to QY in water. • Ref I. Texier, et al., J. Biomed. Opt. 2009, 14, 054005.

[3] = Absorption and fluorescence spectroscopy, Cy5.5 dimers (Examples 2 and 3); settings: for λem, position of the emission maximum: excitation 630 nm
Method: Absorption spectra were recorded on a Shimadzu UV-2700i spectrophotometer and fluorescence spectra on a Horiba Fluoromax 4 spectrofluorometer. Fluorescence emission spectra were systematically recorded at 630 nm excitation wavelength at 20° C. All fluorescence spectra were corrected for instrumental effects. Fluorescence quantum yields (QY) were measured using Rhodamine 800 in EtOH as a reference (QY=25%).^[ref] Turn-ON were calculated as a ratio of OY of compounds in EtOH to OY in water. • Ref A. Alessi, M. Salvalaggio, G. Ruzzon, J. Lumin. 2013, 134, 385-389. DY647 Dimers
Absorption spectra were recorded on a Shimadzu UV-2700i spectrophotometer and fluorescence spectra on a Horiba Fluoromax 4 spectrofluorometer. Fluorescence emission spectra were systematically recorded at 630 nm excitation wavelength at 20° C. All fluorescence spectra were corrected for instrumental effects. Fluorescence quantum yields (QY) were measured using Rhodamine 800 in EtOH as a reference (QY=25%).^[ref] Turn-ON were calculated as a ratio of QY of compounds in EtOH to QY in water. • Ref A. Alessi, M. Salvalaggio, G. Ruzzon, J. Lumin. 2013, 134, 385-389. DY647 Dimers

C#CCNC(=O)CCNC(=O)CCC(=O)NCCOCCOCCNC(=O)CCC(=O)NCCOCCOCCNC(=O)[C@H](CCCCNC(=O)CCC(=O)NCCOCCOCCNC(=O)CCCCCN1/C(=C/C=C/C=C/C2=[N+](CCOCCOCCOCCOCCOCCOCCOCCOC)c3ccc4ccccc4c3C2(C)C)C(C)(C)c2c1ccc1ccccc21)NC(=O)CCC(=O)NCCOCCOCCNC(=O)CCCCCN1/C(=C/C=C/C=C/C2=[N+](CCOCCOCCOCCOCCOCCOCCOCCOC)c3ccc4ccccc4c3C2(C)C)C(C)(C)c2c1ccc1ccccc21.O=C([O-])C(F)(F)F.O=C([O-])C(F)(F)F [dCy5.5-PEG]
QY, fluorescence quantum yield ([1]; 1,4-Dioxane): 28% | λabs, position of the absorption maximum ([1]; 1,4-Dioxane): 689 nm | λem, position of the emission maximum ([1]; 1,4-Dioxane): 718 nm | QY, fluorescence quantum yield ([1]; DMF): 56% | λabs, position of the absorption maximum ([1]; DMF): 685 nm | λem, position of the emission maximum ([1]; DMF): 709 nm | QY, fluorescence quantum yield ([1]; EtOH): 26% | λabs, position of the absorption maximum ([1]; EtOH): 686 nm | λem, position of the emission maximum ([1]; EtOH): 710 nm | QY, fluorescence quantum yield ([1]; MeOH): 26% | λabs, position of the absorption maximum ([1]; MeOH): 682 nm | λem, position of the emission maximum ([1]; MeOH): 705 nm | Difference in QY between organic solvents and water (turn-on response) [1]: up to 140 fold | QY, fluorescence quantum yield ([1]; Water): 0.4% | λabs, position of the absorption maximum ([1]; Water): 629 nm | λem, position of the emission maximum ([1]; Water): 700 nm | Fluorescence maxima [1]: around 710 nm | Extinction coefficient, estimation for the dimer ([1]; open form (in MeOH), double of cyanine 2): 444 000 M^−1 cm^−1

COCC[N+]1=C(/C=C/C=C/C=C2/N(CCCCCC(=O)NCCOCCOCCNC(=O)CCC(=O)NCCCC[C@H](NC(=O)CCC(=O)NCCOCCOCCNC(=O)CCCCCN3/C(=C/C=C/C=C/C4=[N+](CCOC)c5ccc(S(=O)(=O)O)cc5C4(C)C)C(C)(C)c4cc(S(=O)(=O)[O-])ccc43)C(=O)NCCOCCOCCNC(=O)CCC(=O)NCCOCCOCCNC(=O)CCC(=O)OC(C)(C)C)c3ccc(S(=O)(=O)[O-])cc3C2(C)C)C(C)(C)c2cc(S(=O)(=O)O)ccc21 [B]
QY, fluorescence quantum yield ([2]; Acetone): 0.4% | λabs, position of the absorption maximum ([2]; Acetone): 660 nm | λem, position of the emission maximum ([2]; Acetone): 683 nm | QY, fluorescence quantum yield ([2]; Acetonitrile): 6.6% | λabs, position of the absorption maximum ([2]; Acetonitrile): 658 nm | λem, position of the emission maximum ([2]; Acetonitrile): 677 nm | QY, fluorescence quantum yield ([2]; EtOH): 35.1% | λabs, position of the absorption maximum ([2]; EtOH): 653 nm | λem, position of the emission maximum ([2]; EtOH): 673 nm | QY, fluorescence quantum yield ([2]; H2O): 7.6% | λabs, position of the absorption maximum ([2]; H2O): 648 nm | λem, position of the emission maximum ([2]; H2O): 666 nm | QY, fluorescence quantum yield ([2]; MeOH): 33.0% | λabs, position of the absorption maximum ([2]; MeOH): 650 nm | λem, position of the emission maximum ([2]; MeOH): 673 nm | Fluorescence turn-on [2]: 4.6

COCCOCCOCCOCCOCCOCCOCCOCC[N+]1=C(/C=C/C=C/C=C2/N(CCCCCC(=O)NCCOCCOCCNC(=O)CCC(=O)NCCCC[C@H](NC(=O)CCC(=O)NCCOCCOCCNC(=O)CCCCCN3/C(=C/C=C/C=C/C4=[N+](CCOCCOCCOCCOCCOCCOCCOCCOC)c5ccc6ccccc6c5C4(C)C)C(C)(C)c4c3ccc3ccccc43)C(=O)NCCOCCOCCNC(=O)CCC(=O)NCCOCCOCCNC(=O)CCC(=O)OC(C)(C)C)c3ccc4ccccc4c3C2(C)C)C(C)(C)c2c1ccc1ccccc21 [Compound 5]
QY, fluorescence quantum yield ([3]; Acetone): 25.0% | λabs, position of the absorption maximum ([3]; Acetone): 683 nm | λem, position of the emission maximum ([3]; Acetone): 708 nm | QY, fluorescence quantum yield ([3]; Acetonitrile): 22.7% | λabs, position of the absorption maximum ([3]; Acetonitrile): 681 nm | λem, position of the emission maximum ([3]; Acetonitrile): 703 nm | QY, fluorescence quantum yield ([3]; EtOH): 26.5% | λabs, position of the absorption maximum ([3]; EtOH): 685 nm | λem, position of the emission maximum ([3]; EtOH): 708 nm | QY, fluorescence quantum yield ([3]; H2O): 0.4% | λabs, position of the absorption maximum ([3]; H2O): 630 nm | λem, position of the emission maximum ([3]; H2O): 708 nm | QY, fluorescence quantum yield ([3]; MeOH): 21.1% | λabs, position of the absorption maximum ([3]; MeOH): 682 nm | λem, position of the emission maximum ([3]; MeOH): 708 nm | Fluorescence turn-on ([3]; ratio of quantum yields in EtOH to that in water (200 nM), Cy5.5 dimers): 66

C#CCNC(=O)CCNC(=O)CCC(=O)NCCOCCOCCNC(=O)CCC(=O)NCCOCCOCCNC(=O)CCC(=O)NCCOCCOCCNC(=O)CCCCCN1/C(=C/C=C/C=C/C2=[N+](CCOCCOCCOCCOCCOCCOCCOCCOC)c3ccc4ccccc4c3C2(C)C)C(C)(C)c2c1ccc1ccccc21.O=C([O-])C(F)(F)F [mCy5.5-PEG]
QY, fluorescence quantum yield ([1]; 1,4-Dioxane): 59% | λabs, position of the absorption maximum ([1]; 1,4-Dioxane): 689 nm | λem, position of the emission maximum ([1]; 1,4-Dioxane): 712 nm | QY, fluorescence quantum yield ([1]; DMF): 50% | λabs, position of the absorption maximum ([1]; DMF): 686 nm | λem, position of the emission maximum ([1]; DMF): 709 nm | QY, fluorescence quantum yield ([1]; EtOH): 34% | λabs, position of the absorption maximum ([1]; EtOH): 686 nm | λem, position of the emission maximum ([1]; EtOH): 709 nm | QY, fluorescence quantum yield ([1]; MeOH): 32% | λabs, position of the absorption maximum ([1]; MeOH): 681 nm | λem, position of the emission maximum ([1]; MeOH): 705 nm | Difference in QY between organic solvents and water (turn-on response) [1]: < 2.7 fold | QY, fluorescence quantum yield ([1]; Water): 22% | λabs, position of the absorption maximum ([1]; Water): 679 nm | λem, position of the emission maximum ([1]; Water): 700 nm | Fluorescence maxima [1]: around 710 nm | Absorption maxima ([1]; in water and in MeOH): around 680 nm

COCCOCCOCCOCCOCCOCCOCCOCC[N+]1=C(/C=C/C=C/C=C2/N(CCCCCC(=O)O)c3ccc4ccccc4c3C2(C)C)C(C)(C)c2c1ccc1ccccc21.[I-] [cyanine 2, 2-((1E,3E,5E)-5-(3-(5-carboxypentyl)-1,1-dimethyl-1,3-dihydro-2H-benzo[e]indol-2-ylidene)penta-1,3-dien-1-yl)-1,1-dimethyl-3-(2,5,8,11,14,17,20,23-octaoxapentacosan-25-yl)-1H-benzo[e]indol-3-ium iodide]
Extinction coefficient ([1]; in MeOH): 222 000 M^−1 cm^−1

COCC[N+]1=C(/C=C/C=C/C=C2/N(CCCCCC(=O)NCCCC[C@H](NC(=O)CCCCCN3/C(=C/C=C/C=C/C4=[N+](CCOC)c5ccc(S(=O)(=O)O)cc5C4(C)C)C(C)(C)c4cc(S(=O)(=O)[O-])ccc43)C(=O)NCCOCCOCCNC(=O)CCC(=O)NCCOCCOCCNC(=O)CCC(=O)OC(C)(C)C)c3ccc(S(=O)(=O)[O-])cc3C2(C)C)C(C)(C)c2cc(S(=O)(=O)O)ccc21 [A]
QY, fluorescence quantum yield ([2]; Acetone): 3.4% | λabs, position of the absorption maximum ([2]; Acetone): 661 nm | λem, position of the emission maximum ([2]; Acetone): 684 nm | QY, fluorescence quantum yield ([2]; Acetonitrile): 19.8% | λabs, position of the absorption maximum ([2]; Acetonitrile): 656 nm | λem, position of the emission maximum ([2]; Acetonitrile): 678 nm | QY, fluorescence quantum yield ([2]; EtOH): 31.1% | λabs, position of the absorption maximum ([2]; EtOH): 654 nm | λem, position of the emission maximum ([2]; EtOH): 676 nm | QY, fluorescence quantum yield ([2]; H2O): 4.1% | λabs, position of the absorption maximum ([2]; H2O): 647 nm | λem, position of the emission maximum ([2]; H2O): 671 nm | QY, fluorescence quantum yield ([2]; MeOH): 28.2% | λabs, position of the absorption maximum ([2]; MeOH): 651 nm | λem, position of the emission maximum ([2]; MeOH): 673 nm | Fluorescence turn-on [2]: 7.6
